We go through 15 molecules from PubChem BioAssay (NCI).

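The compound was tested at five concentrations on cells cultured in 96-well plates, with a 48-hour exposure period. GI50 = concentration required for 50% inhibition of growth. TGI: total growth inhibition.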

Some test systems named below: TK-10 renal; OVCAR-4 ovarian; MOLT-4 leukemia; HOP-92 NSCLC; UO-31 renal; UACC-257 melanoma; LOX IMVI melanoma; HCT-15 colon.
Common to all, as to assay: NCI tumour cell line growth inhibition, 48 h

As to `CN(C(=O)C12C3C4C1C1C2C3C41C(N)=O)C(C)(C)C` (configuration not stated), the TGI in the test with TK-10 renal, in the test on OVCAR-4 ovarian, with MOLT-4 leukemia, in the test on HOP-92 NSCLC and with UO-31 renal was more than 100 µM each time.

As for `CCCCCCC[CH2][Sn]([CH2]CCCCCCC)([O]c1cccc2cccnc12)[O]c1cccc2cccnc12`, the GI50 is 1.56 µM in the test on UACC-257 melanoma; 3.85 µM in the test on TK-10 renal; 1.77 µM with LOX IMVI melanoma; 2.53 µM with HCT-15 colon; 0.595 µM with MOLT-4 leukemia; 2 µM in the test on UO-31 renal. For the same molecule, the TGI with UACC-257 melanoma stood at 4.56 µM; with TK-10 renal it was 13.7 µM; in the test with LOX IMVI melanoma it was 3.64 µM; in the test with HCT-15 colon, 10.8 µM; in the test on MOLT-4 leukemia, 3.81 µM; in the test on UO-31 renal, 5.42 µM.

On to `c1cncc(C2N3CCCCC3[C@@H]3c4[nH]c5ccccc5c4CCN23)c1` (some centres not stated), for which the TGI in the test on UACC-257 melanoma, in the test with TK-10 renal, in the test with OVCAR-4 ovarian, in the test on HCT-15 colon, in the test with MOLT-4 leukemia and in the test on HOP-92 NSCLC was more than 100 µM throughout. For the same molecule, in the test with UO-31 renal, the TGI is more than 100 µM.

For `C=C/C=C/NC(=O)OCc1ccccc1`, the TGI with UACC-257 melanoma, in the test with TK-10 renal, in the test with OVCAR-4 ovarian, in the test on LOX IMVI melanoma, in the test with MOLT-4 leukemia and in the test with HOP-92 NSCLC was more than 100 µM in each case. In the test on UO-31 renal, this molecule gave a TGI of more than 100 µM.

Regarding `CC(=O)Nc1ccc(S(=O)(=O)N/N=C/CN2C(=O)c3ccccc3C2=O)cc1`, the TGI in the test on UACC-257 melanoma, in the test on TK-10 renal, with OVCAR-4 ovarian, with LOX IMVI melanoma, in the test with HCT-15 colon and in the test on MOLT-4 leukemia was more than 100 µM each time. The TGI in the test with UO-31 renal was more than 100 µM.

For the molecule `OC(CCNC12CC3CC(CC(C3)C1)C2)c1ccccc1` (configuration not stated), the TGI in the test with UACC-257 melanoma, in the test with TK-10 renal, with OVCAR-4 ovarian, with HCT-15 colon, with MOLT-4 leukemia and with HOP-92 NSCLC was more than 100 µM in each case. For the same molecule, the TGI in the test on UO-31 renal is more than 100 µM.

Consider `CCOC(C[C@H](O[Si](C)(C)C(C)(C)C)[C@H]1COC(=S)S1)OCC`, for which the TGI in the test on UACC-257 melanoma, in the test with TK-10 renal, in the test with LOX IMVI melanoma, with HCT-15 colon, in the test on MOLT-4 leukemia and with UO-31 renal was more than 100 µM each time.

Take `C=C1CC2OC(=O)C(=C)C2C(O)C2C(=C)CCC12` (configuration not stated): the TGI came to 18.8 µM in the test with UACC-257 melanoma; 28 µM with TK-10 renal; 11 µM with MOLT-4 leukemia; 5.84 µM in the test with HOP-92 NSCLC; 29.7 µM in the test on UO-31 renal.

Take `O=C(O)CC[C@H](NC(=O)c1ccc(-n2nc3ccc(O)cc3nc2=O)cc1)C(=O)O`: the TGI in the test on UACC-257 melanoma, in the test with TK-10 renal, in the test with OVCAR-4 ovarian, in the test on HCT-15 colon, in the test with MOLT-4 leukemia and with HOP-92 NSCLC was more than 100 µM in each case. The molecule further had a TGI in the test with UO-31 renal of more than 100 µM.

Turning to `CCOC(=O)/C(C1=NCCN1)=C(\O)c1ccccc1`, the TGI with UACC-257 melanoma, in the test with OVCAR-4 ovarian, in the test on LOX IMVI melanoma, in the test with HCT-15 colon, in the test with MOLT-4 leukemia and with UO-31 renal was more than 100 µM each time.

Take `OC1(C23CC4CC(CC(C4)C2)C3)CSCC1(O)C12CC3CC(CC(C3)C1)C2` (configuration not stated): the TGI with UACC-257 melanoma was more than 100 µM; in the test on TK-10 renal, more than 100 µM; in the test on OVCAR-4 ovarian, more than 100 µM; in the test with MOLT-4 leukemia, more than 10 µM; with HOP-92 NSCLC, more than 100 µM; with UO-31 renal, more than 100 µM.

With `Cc1ccc2c(c1)-c1c3c(nn1-c1ccccc1)-c1ccccc1SC3O2` (configuration not stated), the TGI in the test on UACC-257 melanoma, in the test on TK-10 renal, in the test with LOX IMVI melanoma, with MOLT-4 leukemia, in the test on HOP-92 NSCLC and with UO-31 renal was more than 100 µM each time.

Turning to `COc1ccc2c(c1)C(=O)c1ccc(OC)cc1C2=S`, the TGI in the test with UACC-257 melanoma, with TK-10 renal, with LOX IMVI melanoma, in the test on HCT-15 colon, in the test with MOLT-4 leukemia and in the test on HOP-92 NSCLC was more than 100 µM throughout. In addition, the TGI with UO-31 renal was more than 100 µM.

Consider `CC(CN(C)C)/C(=N\Nc1ccccc1)c1ccccc1` (configuration not stated), for which the TGI in the test on UACC-257 melanoma worked out at 15.3 µM; with TK-10 renal, 5.56 µM; with OVCAR-4 ovarian, 19.8 µM; in the test on LOX IMVI melanoma, 4.16 µM; in the test with HCT-15 colon, 11.1 µM; in the test on MOLT-4 leukemia it was 14 µM. The same molecule had a TGI in the test on UO-31 renal of 3.28 µM.

Turning to `N/N=C(/C(=O)Nc1cccc(Cl)c1)C(C(=O)c1ccc(O)cc1O)C1OC(=O)c2ccccc21` (configuration not stated), the TGI in the test on UACC-257 melanoma, with TK-10 renal, with OVCAR-4 ovarian, in the test with LOX IMVI melanoma, in the test on HCT-15 colon and with MOLT-4 leukemia was more than 100 µM in each case. The TGI in the test with UO-31 renal is more than 100 µM.
